Test: Photostability of BMDBM/OMC compositions in acetonitrile under UV irradiation, with and without APP analogue
Format: physicochemical
Details: no APP
Method: Comparisons were performed to evaluate the abilities of APP derivatives of Formula I, Ia, Ib, Ic, Id, Ie, If, or combination thereof to photostabilize photoactive compounds. UV light exposure is often measured in MED rather than a measurement of time. MED relates to the minimal dosage of UV exposure required to result in redness 24 hours after exposure. Although technically an individualized measurement that would vary depending on the sensitivity of an individual's skin, MED measurements have been standardized with the advent of UV bulbs and lamps. FIG. 1 illustrates the photoinstability of a composition containing BMDBM and OMC. […] Absorption was measured for wavelengths 250 nm to 500 nm in length. BMDBM absorbs wavelengths around 375 nm in length, which can be seen as a distinct peak on the line illustrating the composition which was not irradiated with UV light. […] FIG. 2 illustrates the photostabilization of a photoactive composition by the addition of an APP analogue of Formula I. […] The APP analogue was a 1:1 blend of Formula Ia and Formula Ib. […] FIG. 3 illustrates the percentage of BMDBM remaining in compositions after irradiation with 15 MED of UV light. […] The APP analogue was a 1:1 blend of Formula Ia and Formula Ib.

BMDBM absorption peak at 375 nm after UV irradiation (acetonitrile solution, 10 ppm BMDBM and 10 ppm OMC, 15 MED versus 0 MED, FIG. 1): substantially diminished
percentage of BMDBM remaining capable of absorbing light at 375 nm after irradiation (composition of 10 ppm BMDBM and 10 ppm OMC, 15 MED of UV light, FIG. 3): 2.9%
Compound: COc1ccc(C(=O)CC(=O)c2ccc(C(C)(C)C)cc2)cc1 [BMDBM, 4-tert-butyl-4-methoxy-dibenzoylmethane]
